In general, TGI refers to the concentration giving total growth inhibition.

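A five-concentration, 48-hour dose response in 96-well plates underlies each endpoint, interpolated linearly between surrounding concentrations. TGI: total growth inhibition.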 Where a SMILES comes first, the peptide text is derived from it. [ ]: non-standard residue; d: D form. The star is where a group is joined. Phe(4-NO2) = N[CH](Cc1ccc([N+](=O)[O-])cc1)C(=O)O; Cbz = O=C(OCc1ccccc1)*

Holding throughout (experiment): DTP human tumour cell line panel, 48 h
Assay [1] has as its system IGROV1 ovarian.
Assay [2] deals with HT29 colon.
Assay [3] has as its system RPMI-8226 leukemia.
The subject of assay [4] is TK-10 renal.
Assay [5] concerns MDA-MB-435.
Assay [6] relates to A498 renal.
Assay [7] concerns 786-0 renal.
Assay [8] concerns SW-620 colon.
In assay [9] the test system is SF-539 CNS.
Assay [10] concerns NCI-H460 lung.
In assay [11] the test system is CAKI-1 renal.
Assay [12] has as its system OVCAR-8 ovarian.
Assay [13] concerns M14 melanoma.
Assay [14] relates to SNB-75 CNS.

As to `CCOP(=O)(OCC)/C(C#N)=C/c1cccn1C`, the TGI in assay [1], in [2], in assay [3], in assay [4], in assay [5] and in assay [6] was above 100 µM throughout. Besides, the TGI in assay [7], in assay [8], in assay [9], in [10], in assay [11] and in [12] was above 100 µM each time. In addition, the TGI in [13] and in [14] was above 100 µM each time.
With `O=C(O)C(C1NCCS1)N1C(=O)c2ccccc2C1=O` (stereo not given), the TGI in assay [1], in assay [2], in assay [3], in [4], in assay [5] and in assay [6] was above 100 µM in each case. Moreover, the TGI in assay [7], in [8], in [9], in [10], in [11] and in [12] was above 100 µM in each case. Also, the TGI in [13] and in [14] was above 100 µM throughout.
`CC1=NN(c2ccccc2Cl)C2(C1)C(Cl)C(=O)N2c1nc2ccccc2s1` (stereo not given): the concentration for total growth inhibition (TGI) in [1] is above 100 µM; in [2] it was above 100 µM; in [3], 58.6 µM; in assay [4] it was above 100 µM; in assay [5], above 100 µM; in assay [6], above 100 µM. The TGI in assay [7], in assay [8], in [10], in assay [11], in [12] and in assay [13] was above 100 µM in each case. The molecule also registered a TGI in assay [14] of 89.9 µM.
As for `CCCCCCCCC#CCCCCCCC(F)C(=O)O` (stereo not given), the TGI in assay [1], in assay [2], in assay [3], in [4], in assay [5] and in assay [6] was above 100 µM each time. Also, the concentration for total growth inhibition (TGI) in assay [7], in assay [8], in assay [9], in [10], in [12] and in [13] was above 100 µM throughout. Besides, the TGI in assay [14] was above 100 µM.
In the case of `CC(C)CC1C(=O)OC(C)(C)OC1=O`, the TGI in assay [1], in assay [2], in assay [3], in assay [4], in assay [5] and in assay [6] was above 100 µM in each case. Besides, the concentration for total growth inhibition (TGI) in assay [7], in [8], in [9], in assay [10], in [11] and in assay [12] was above 100 µM in each case. The TGI in assay [13] and in assay [14] was above 100 µM each time.
For the molecule `Clc1nc(NC23CC4CC(CC(C4)C2)C3)nc(NC23CC4CC(CC(C4)C2)C3)n1`, the TGI in [1], in assay [2], in assay [3], in [4], in [5] and in [6] was above 100 µM throughout. For the same molecule, the TGI in [7], in assay [8], in assay [9], in [10], in assay [11] and in [12] was above 100 µM in each case. In addition, the TGI in assay [13] was above 100 µM; in assay [14], above 78 µM.
Consider `CN(C)Cc1cc(C(=O)/C=C/c2ccc(Cl)cc2Cl)cc(CN(C)C)c1O`, for which the TGI in [1] is 10.4 µM; in assay [2] it was 6.91 µM; in assay [3] it was above 100 µM; in [4] it was 24.2 µM; in assay [5] it was 17.1 µM; in assay [6], 8.49 µM. The TGI in assay [7] stood at 13.5 µM; in [8] it was 11.3 µM; in assay [9] it was 17 µM; in assay [10] it was 4.4 µM; in assay [11] it was 5.61 µM; in assay [12], 11 µM. Besides, the values for the TGI in assay [13] and in [14] were 13.3 µM and 16.7 µM, respectively.
Regarding `CC(C)(C)C1CC[C@H](O)[C@H]([C@@H](O)CC2CC(=O)N(c3ccccc3)C(=O)C2)C1` (stereo not given in full), the TGI in assay [1], in assay [2], in assay [3], in assay [4], in assay [5] and in assay [6] was above 100 µM throughout. For the same molecule, the TGI in assay [7], in [8], in assay [9], in assay [10], in assay [11] and in assay [12] was above 100 µM throughout. Also, the TGI in [13] and in assay [14] was above 100 µM in each case.
On to `CCc1n[nH]c(=O)n1N`, for which the TGI in assay [1], in assay [2], in [3], in [4], in assay [5] and in assay [6] was above 100 µM each time. The TGI in assay [7], in assay [8], in assay [9], in assay [10], in assay [11] and in [12] was above 100 µM in each case. For the same molecule, the TGI in assay [13] and in assay [14] was above 100 µM in each case.
With `COc1cnc2oc3ccc(O)cc3c2c1-c1ccccc1`, the TGI in assay [2], in assay [3], in [4], in assay [5], in assay [6] and in [7] was above 100 µM throughout. Further, the TGI is above 100 µM in assay [8]; above 100 µM in assay [9]; above 100 µM in assay [10]; above 100 µM in assay [11]; above 100 µM in assay [12]; 39.8 µM in [13]. Further, in assay [14], the total growth inhibition concentration (TGI) was above 100 µM.
With `CCOC(=O)CCC(NC(=O)OCc1ccccc1)C(=O)NC(CCC(=O)OCC)C(=O)NC(CCC(=O)OCC)C(=O)NC(CCC(=O)OCC)C(=O)NC(CCC(=O)OCC)C(=O)NC(Cc1ccc([N+](=O)[O-])cc1)C(=O)NC(CCC(=O)OCC)C(=O)NC(CCC(=O)OCC)C(=O)NC(CCC(=O)OCC)C(=O)NC(CCC(=O)OCC)C(=O)NC(CCC(=O)OCC)C(=O)OCC` (stereo not given) (Cbz-E(OEt)E(OEt)E(OEt)E(OEt)E(OEt)[Phe(4-NO2)]E(OEt)E(OEt)E(OEt)E(OEt)E(OEt)-OEt; configuration not given here), the TGI in [1], in assay [2], in assay [3], in [4], in [5] and in assay [6] was above 50 µM each time. For the same molecule, the TGI in [7], in assay [8], in assay [9], in [10], in [13] and in assay [14] was above 50 µM throughout.
For the molecule `Nc1nc(N)c2ncn(Cc3ccccc3CO)c2n1`, the TGI in assay [1], in assay [2], in [3], in [4], in [5] and in [6] was above 100 µM each time. Also, the TGI in [7], in [8], in assay [9], in [10], in assay [11] and in assay [12] was above 100 µM in each case. Besides, the TGI in [13] and in [14] was above 100 µM each time.
As for `Cc1ccc(C(=O)c2[nH]c(NCc3ccccc3)c(C(=S)Nc3ccccc3)c2N)cc1`, the TGI was determined as 19.9 µM in [1]; 10.5 µM in assay [2]; 5 µM in assay [3]; 23.3 µM in assay [4]; 10.2 µM in [5]; 31.6 µM in [6]. Further, the TGI was 18.7 µM in assay [7]; 5.19 µM in assay [8]; 5.63 µM in [9]; 18.8 µM in assay [10]; 27.5 µM in [11]; 26.1 µM in [12]. For the same molecule, the TGI in assay [13] amounted to 3.97 µM; in assay [14], 16.6 µM.
As for `C1=C(c2ccccc2)NC2=N[C@H]3CCCC[C@@H]3N2C1c1ccccc1` (stereo not given in full), the TGI is 26 µM in [1]; 14.8 µM in assay [2]; 49.8 µM in assay [3]; 22.1 µM in [4]; 26.4 µM in [5]; 30.2 µM in assay [6]. Besides, the TGI in assay [7] came out at 30.7 µM; in assay [8], 26 µM; in assay [10] it was 25.3 µM; in assay [11], 29.6 µM; in assay [12], 27.4 µM; in assay [13], 25.5 µM. The molecule also yielded a TGI in [14] of 24.3 µM.
For `CN(C)/C=N/S(=O)(=O)c1nn2c(C=O)c(-c3ccc(-c4ccccc4)cc3)nc2s1`, the TGI in assay [1] worked out at 2.59 µM; in assay [2] it was 1.49 µM; in assay [3], 3 µM; in assay [4], 3.83 µM; in assay [5] it was 4.8 µM; in assay [6], 47.5 µM. Also, the TGI in [7] is 2.99 µM; in assay [8], above 26.9 µM; in [9], 7.54 µM; in assay [10], 13.7 µM; in assay [11], 2.88 µM; in assay [13], 3.12 µM. The molecule also yielded a TGI in assay [14] of 18.3 µM.
In the case of `CC(C)(CO)CNc1nc(N)nc(Cl)c1C=O`, the TGI was 46.4 µM in [1]; above 100 µM in [2]; above 100 µM in assay [3]; above 100 µM in [4]; 66.5 µM in assay [5]; above 100 µM in assay [6]. In addition, the total growth inhibition concentration (TGI) in assay [7] is above 100 µM; in assay [8], above 100 µM; in assay [9], above 100 µM; in assay [10], above 100 µM; in [11] it was 52.6 µM; in assay [12], 68.1 µM. In addition, in assay [14], the TGI was above 100 µM.
On to `CC(C)(C(=O)N(C(=O)N1CCN(c2ccccc2)CC1)S(=O)(=O)c1ccccc1)c1ccc(Cl)cc1`, for which the TGI is above 100 µM in assay [2]; above 100 µM in [3]; above 100 µM in assay [4]; above 100 µM in [5]; 80.8 µM in assay [6]; above 100 µM in assay [7]. Further, the TGI in assay [8], in assay [9], in assay [10], in assay [11], in [12] and in assay [13] was above 100 µM each time. The same molecule displayed a total growth inhibition concentration (TGI) in assay [14] above 100 µM.
As for `COc1ccc(-n2c(C)nc3ccc(NC4OC(COC(C)=O)C(OC(C)=O)C(OC(C)=O)C4OC(C)=O)cc3c2=O)cc1` (stereo not given), the total growth inhibition concentration (TGI) in assay [1] is above 100 µM; in assay [2], above 100 µM; in [3], 61.2 µM; in assay [4] it was above 100 µM; in [5], above 100 µM; in assay [6], above 100 µM. The TGI in assay [7] was 65.3 µM; in assay [8] it was above 100 µM; in assay [10] it was above 100 µM; in assay [11], 57.3 µM; in assay [12], above 100 µM; in assay [14] it was above 100 µM.
In the case of `COc1ccc(-n2c(C)nc3ccc(NC4OCC(OC(C)=O)C(OC(C)=O)C4OC(C)=O)cc3c2=O)cc1` (stereo not given), the TGI in assay [1], in [2], in [3], in [4], in [5] and in assay [6] was above 100 µM throughout. Further, the TGI in assay [7], in assay [8], in [10], in assay [11], in assay [12] and in [14] was above 100 µM throughout.
For the molecule `CN1CC[C@@]2(c3cccc(O)c3)CC(=O)/C(=C/c3ccc(Cl)c(Cl)c3)[C@H]1C2`, the TGI in assay [1] is 5.65 µM; in assay [2], 2.72 µM; in assay [3], 4.37 µM; in assay [4], 27 µM; in assay [5] it was 2.8 µM; in assay [6], 26.5 µM. Also, the TGI in assay [7] came to 3.07 µM; in assay [8] it was 3.06 µM; in assay [10], 4.72 µM; in assay [12] it was 10.1 µM; in assay [13] it was 5.02 µM; in assay [14], 2.63 µM.
